Like-named read-outs stand apart in the source and are kept apart here.
How the values were obtained:
[1] = biological target: T1, human A2a adenosine receptor (Homo sapiens, UniProt P29274); assay: Ligand binding assay for adenosine A2a receptor ([3H]CGS21680, HEK293 plasma membrane)
T1 construct: purchased PerkinElmer RB-HA2a; host or cells: HEK293 cell plasma membrane
Protocol: Ligand Binding Assay for Adenosine A2a Receptor
Ligand binding assay of adenosine A2a receptor was performed using plasma membrane of HEK293 cells containing human A2a adenosine receptor (PerkinElmer, RB-HA2a) and radioligand [^3H]CGS21680 (PerkinElmer, NET1021). Assay was set up in 96-well polypropylene plate in total volume of 200 µl by sequentially adding 20 µL1:20 diluted membrane, 130 µLassay buffer (50 mM Tris·HCl, pH7.4 10 mM MgCl2, 1 mM EDTA) containing [^3H] […] Nonspecific binding was determined by […] NECA. Reaction was carried out at room temperature for 2 hours before filtering through 96-well GF/C filter plate pre-soaked in 50 mM Tris·HCl, pH7.4 containing 0.3% polyethylenimine. Plates were then washed 5 times with cold 50 mM Tris·HCl, pH7.4, dried and sealed at the bottom. Microscintillation fluid 30 µl was added to each well and the top sealed. Plates were counted on Packard Topcount for [^3H]. Data was analyzed in Microsoft Excel and GraphPad Prism programs.

Adenosine A1 receptor = biological target: T2, Adenosine A1 receptor (Homo sapiens, UniProt P30542); assay: A1 antagonist function (no method described); format: cell-based
T2 sequence (P30542 1-326): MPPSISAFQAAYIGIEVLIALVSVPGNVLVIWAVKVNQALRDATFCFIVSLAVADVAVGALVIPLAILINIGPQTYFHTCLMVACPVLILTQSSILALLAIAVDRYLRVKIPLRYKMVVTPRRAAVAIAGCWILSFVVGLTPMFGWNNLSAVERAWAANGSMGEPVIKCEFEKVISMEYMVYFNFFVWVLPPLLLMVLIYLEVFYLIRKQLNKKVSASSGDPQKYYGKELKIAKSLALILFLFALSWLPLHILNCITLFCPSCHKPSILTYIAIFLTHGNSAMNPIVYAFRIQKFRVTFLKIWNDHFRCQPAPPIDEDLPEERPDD

[2] = biological target: T3, human adenosine A2a receptors (Homo sapiens, UniProt P29274); assay: Adenosine A2a receptor functional assay, antagonist mode (cAMP-inducible beta-galactosidase reporter, 50 nM NECA); format: cell-based; conditions: CHO-K1 cells, read-out: Ki (nM) A2a antagonist function
T3 construct: expressed in transfected cells; host or cells: CHO-K1 cells with cAMP-inducible beta-galactosidase reporter gene
T3 sequence (P29274 whole entry): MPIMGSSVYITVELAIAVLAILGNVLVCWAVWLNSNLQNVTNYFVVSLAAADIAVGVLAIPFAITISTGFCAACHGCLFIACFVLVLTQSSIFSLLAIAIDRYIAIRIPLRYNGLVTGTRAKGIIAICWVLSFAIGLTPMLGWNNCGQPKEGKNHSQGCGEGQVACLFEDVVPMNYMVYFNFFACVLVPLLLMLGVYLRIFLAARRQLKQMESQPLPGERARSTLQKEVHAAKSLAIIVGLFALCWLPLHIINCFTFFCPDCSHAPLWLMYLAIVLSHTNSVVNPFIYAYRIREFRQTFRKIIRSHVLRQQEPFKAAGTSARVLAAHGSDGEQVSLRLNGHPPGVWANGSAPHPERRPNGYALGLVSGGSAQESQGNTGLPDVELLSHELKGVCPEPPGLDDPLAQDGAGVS
Protocol: Adenosine A2a Receptor Functional Assay
CHO-K1 cells overexpressing human adenosine A2a receptors and containing cAMP-inducible beta-galactosidase reporter gene were seeded at 40-50K/well into 96-well tissue culture plates and cultured for two days. On assay day, cells were washed once with 200 µL assay medium (F-12 nutrient mixture/0.1 % BSA). For agonist assay, adenosine A2a receptor agonist NECA was subsequently added and cell incubated at 37°C, 5% CO2 for 5 hrs before stopping reaction. In the case of antagonist assay, cells were incubated with antagonists for 5 minutes at R.T. followed by addition of 50 nM NECA. Cells were then incubated at 37°C, 5% CO2 for 5 hrs before stopping experiments by washing cells with PBS twice. 50 µL 1X lysis buffer (Promega, 5X stock solution, needs to be diluted to 1X before use) was added to each well and plates frozen at -20°C. For β-galactosidase enzyme colorimetric assay, plates were thawed out at room temperature and 50 µL 2X assay buffer (Promega) added to each well. Color was allowed to develop at 37°C for 1 h or until reasonable signal appeared. Reaction was then stopped with 150 µL 1 M sodium carbonate. […] Data was analyzed in Microsoft Excel and GraphPad Prism programs.

[3] = radioligand [3H]CGS21680, HEK293 membranes, room temperature 2 hours; read-out: Ki (nM) A2a binding

T1 sequence (P29274 whole entry): as above

SMILES | Ki [1, 3] | Ki (Adenosine A1 receptor) | Ki [2] | Ki ([1]; read-out: Ki (nM) A2a binding; radioligand [3H]CGS21680, HEK293 membranes, room temperature 2 hours)
COc1ccc(-c2nc(N)nc3c2Cc2ccccc2-3)cc1 [Compound 1] | 44.6 nM | 53 nM | 234 nM | –
COc1ccc(-c2nc(N)nc3c2C(=O)c2ccccc2-3)cc1 [Compound 2] | 2.03 nM | 5.32 nM | 6.87 nM | –
Nc1nc(-c2ccco2)c2c(n1)-c1ccccc1C2 [Compound 4] | 0.885 nM | 15.6 nM | 2.63 nM | –
Nc1nc(-c2cccnc2)c2c(n1)-c1ccccc1C2=O [Compound 5] | 5.36 nM | 27.1 nM | 9.64 nM | –
Nc1nc(-c2ccncc2)c2c(n1)-c1ccccc1C2=O [Compound 6] | 3.9 nM | 16.4 nM | 4.56 nM | –
Nc1nc(-c2nccs2)c2c(n1)-c1ccccc1C2=O [Compound 7] | – | 6.89 nM | 0.49 nM | –
Nc1nc(-c2ccc(Cl)cc2)c2c(n1)-c1ccccc1C2=O [Compound 8] | 58.4 nM | 11.6 nM | 5.5 nM | –
Nc1nc(-c2cccc([N+](=O)[O-])c2)c2c(n1)-c1ccccc1C2=O [Compound 9] | 20.8 nM | 7.69 nM | 4.85 nM | –
Nc1nc(-c2ccccc2)c2c(n1)-c1ccccc1C2=O [Compound 10, 2-amino-4-phenyl-indeno[1,2-d]pyrimidin-5-one] | – | 1.2 nM | – | –
COc1cccc(-c2nc(N)nc3c2C(=O)c2ccccc2-3)c1 [Compound 11] | 8.85 nM | 2.47 nM | 1.63 nM | –
COc1ccccc1-c1nc(N)nc2c1C(=O)c1ccccc1-2 [Compound 12] | 33.5 nM | 172 nM | 32.5 nM | –
Nc1nc(-c2cccc(O)c2)c2c(n1)-c1ccccc1C2=O [Compound 13] | 5.16 nM | 10.3 nM | 35.6 nM | –
Nc1nc(-c2ccsc2)c2c(n1)-c1ccccc1C2=O [Compound 15] | 3.23 nM | 3.46 nM | 0.258 nM | –
Nc1nc(-c2ccco2)c2c(n1)-c1ccc(Br)cc1C2=O [Compound 16] | 1.75 nM | 5.22 nM | 0.169 nM | –
Nc1nc(-c2ccco2)c2c(n1)-c1cccc(O)c1C2=O [Compound 17] | 6.3 nM | 111 nM | 67.1 nM | –
CSc1nc(N)nc2c1C(=O)c1c(N)cccc1-2 [Compound 18] | 318 nM | 189 nM | > 3000 nM | –
CN(C)C=Nc1nc(-c2cccc(F)c2)c2c(n1)-c1ccccc1C2=O [Compound 19] | 111 nM | 21.6 nM | 20.9 nM | –
Nc1nc(-c2ccco2)c2c(n1)-c1c(N)cccc1C2=O [Compound 21] | 0.376 nM | 3.51 nM | 0.053 nM | –
Nc1nc(-c2ccco2)c2c(n1)-c1ccc(C(F)(F)F)cc1C2=O [Compound 22] | 14.2 nM | 2.75 nM | 0.055 nM | –
Nc1nc(-c2ccco2)c2c(n1)-c1cc(C(F)(F)F)ccc1C2=O [Compound 23] | 13.6 nM | 1.47 nM | 0.55 nM | –
CNc1nc(-c2ccccc2)c2c(n1)-c1ccccc1C2=O [Compound 24] | 30.3 nM | 5.99 nM | > 3000 nM | –
Nc1nc(-c2ccco2)c2c(n1)-c1cc(Cl)c(Cl)cc1C2=O [Compound 25] | 173 nM | 17.4 nM | 5.69 nM | –
Nc1nc(-c2ccco2)c2c(n1)-c1c(Cl)ccc(Cl)c1C2=O [Compound 26] | 34.6 nM | 3.13 nM | 0.88 nM | –
CCN(CC)CCNc1nc(-c2ccccc2)c2c(n1)-c1ccccc1C2=O [Compound 27] | 147 nM | > 1000 nM | 68.3 nM | –
Nc1nc(-c2ccc(F)c(F)c2)c2c(n1)-c1ccccc1C2=O [Compound 28] | 48.9 nM | 5.86 nM | 3.53 nM | –

SMILES | Ki [1, 3] | Ki (Adenosine A1 receptor) | Ki [2] | Ki ([1]; read-out: Ki (nM) A2a binding; radioligand [3H]CGS21680, HEK293 membranes, room temperature 2 hours)
Nc1nc(-c2cc(F)cc(F)c2)c2c(n1)-c1ccccc1C2=O [Compound 29] | 20.9 nM | 4.27 nM | 1.42 nM | –
COc1ccc(-c2nc(N)nc3c2C(=O)c2ccccc2-3)cn1 [Compound 30] | 31.5 nM | 4.05 nM | 10.2 nM | –
C[C@H](O)[C@@H](O)c1cccc2c1C(=O)c1c(-c3ccccc3)nc(N)nc1-2 [Compound 32] | – | 9.89 nM | 0.634 nM | 3.55 nM
C[C@H](O)[C@@H](O)c1cccc2c1-c1nc(N)nc(-c3ccccc3)c1C2=O [Compound 33] | 0.175 nM | 0.021 nM | 0.34 nM | –
CCCn1cc(-c2nc(N)nc3c2C(=O)c2ccccc2-3)ccc1=O [Compound 34] | 560 nM | – | – | –
Nc1nc(-c2ccco2)c2c(n1)-c1cc(Br)ccc1C2=O [Compound 35] | 3.49 nM | 7.09 nM | 0.265 nM | –
Nc1nc(-c2ccco2)c2c(n1)-c1c(F)cccc1C2=O [Compound 36] | 4.37 nM | 2.52 nM | 0.052 nM | –
COc1cccc2c1C(=O)c1c(-c3ccco3)nc(N)nc1-2 [Compound 37] | 2.86 nM | 3.07 nM | 0.143 nM | –
Nc1nc(-c2ccc(F)cc2)c2c(n1)-c1ccccc1C2=O [Compound 38] | 2.34 nM | 9.44 nM | 0.956 nM | –
Nc1nc(-c2cccc(F)c2)c2c(n1)-c1ccccc1C2=O [Compound 39] | 4.92 nM | 2.31 nM | 0.926 nM | –
CSc1nc(N)nc2c1C(=O)c1ccccc1-2 [Compound 41] | 88 nM | > 3000 nM | 575 nM | –
Nc1nc(Nc2ccccc2)c2c(n1)-c1ccccc1C2=O [Compound 43] | 39.9 nM | 2.34 nM | 3.68 nM | –
Nc1nc(-c2ccoc2)c2c(n1)-c1ccccc1C2=O [Compound 44] | 3.93 nM | 7.4 nM | 0.208 nM | –
Cc1ccc(-c2nc(N)nc3c2C(=O)c2ccccc2-3)o1 [Compound 45, 2-amino-4-(5-methyl-furan-2-yl)-indeno[1,2-d]pyrimidin-5-one] | 4.01 nM | 0.016 nM | 0.005 nM | –
CN(C)CCN(C)Cc1cccc2c1C(=O)c1c(-c3ccccc3)nc(N)nc1-2 [Compound 49] | 51.1 nM | 119 nM | 40.1 nM | –
CN1CCN(Cc2cccc3c2C(=O)c2c(-c4ccccc4)nc(N)nc2-3)CC1 [Compound 50] | 80.1 nM | 94.2 nM | 11.3 nM | –
Nc1nc(-c2ccccc2)c2c(n1)-c1cccc(CN3CCOCC3)c1C2=O [Compound 51] | 36.8 nM | 32.9 nM | 3.26 nM | –
CC(C)(C)OC(=O)NC1CCN(Cc2cccc3c2C(=O)c2c(-c4ccccc4)nc(N)nc2-3)CC1 [Compound 60] | 34.3 nM | – | – | –
CCN(Cc1ccncc1)Cc1cccc2c1C(=O)c1c(-c3ccccc3)nc(N)nc1-2 [Compound 61] | 29.8 nM | – | – | –
CN(Cc1ccco1)Cc1cccc2c1C(=O)c1c(-c3ccccc3)nc(N)nc1-2 [Compound 62] | 58.4 nM | – | – | –
N#Cc1c(N)nc(-c2ccco2)c2c1-c1ccccc1C2=O [Compound 63, 9H-indeno[2,1-c]pyridine-4-carbonitrile, 3-amino-1-furan-2-yl-9-oxo-] | 0.59 nM | 0.18 nM | – | –
CN(C)CCN(C)C(=O)c1c(N)nc(-c2ccco2)c2c1-c1ccccc1C2=O [Compound 77, 9H-indeno[2,1-c]pyridine-4-carboxylic acid, 3-amino-1-furan-2-yl-9-oxo-, (2-dimethylamino-ethyl)-methyl-amide] | 6.25 nM | – | 0.68 nM | –
CC(CN(C)C)NC(=O)c1c(N)nc(-c2ccco2)c2c1-c1ccccc1C2=O (centres unmarked) [Compound 78, 9H-indeno[2,1-c]pyridine-4-carboxylic acid, 3-aminol-furan-2-yl-9-oxo-, (2-dimethylamino-1-methyl-ethyl)-amide] | 17.6 nM | – | 1.58 nM | –
CCc1nc(N)c(C#N)c2c1C(=O)c1ccccc1-2 [Compound 85] | 508 nM | – | – | –
